The source made the active and inactive calls. The calls are words filed in the database; no cut-off is given here.
How the values were obtained:
A549 [1] = experiment: Antitumor activity against NAMPT inhibitor-resistant A549 cells xenografted in athymic nude mouse assessed as tumor growth inhibition at 2 mg/kg, iv bid measured on day 21 by caliper method; format: functional, Homo sapiens; conditions: A549, 504 h, time 21 day, read-out: TGI
A549 [2] = experiment: Antiproliferative activity against NAMPT inhibitor-resistant A549 cells assessed as reduction in cell viability measured for 48 hrs by CCK-8 assay; conditions: Homo sapiens
A549 [3] = experiment: Antimigratory activity against NAMPT inhibitor-resistant A549 cells assessed as reduction in cell migration at 40 uM incubated for 24 hrs in presence of FK866 by inverted microscopic analysis; format: functional, cell-based; conditions: Homo sapiens
A549 [4] = experiment: Downregulation of IDO1 expression in NAMPT inhibitor-resistant A549 cells measured for 24 hrs by Western blot analysis; format: functional, cell-based; conditions: Homo sapiens, dose 5-10 µM
A549 [5] = experiment: cells; conditions: Homo sapiens, A549, 48 h
A549 [6] = experiment: cells; conditions: Homo sapiens, A549, 48 h; remark: listed apart in the source
[7] = target: T1, Indoleamine 2,3-dioxygenase 1 (Homo sapiens, UniProt P14902); experiment: Inhibition of human recombinant IDO1 assessed as reduction in N-formylkynurenine formation using L-tryptophan as substrate preincubated for 30 mins followed by substrate addition and measured after 10 mins by SpectraMax microplate reader analysis
[8] = target: Nicotinamide phosphoribosyltransferase (Homo sapiens, UniProt P43490); experiment: Inhibition of recombinant NAMPT (unknown origin) incubated for 60 mins by SpectraMax microplate reader analysis
[9] = target: T1, Indoleamine 2,3-dioxygenase 1; experiment: Inhibition of human recombinant IDO1 in human HeLa cells assessed as reduction in N-formylkynurenine formation using L-tryptophan as substrate preincubated for 24 hrs followed by substrate addition and measured after 30 mins; format: cell-based
A549 [10] = experiment: Antiproliferative activity against NAMPT inhibitor-resistant A549 cells assessed as reduction in cell viability in presence of NMN and L-tryptophan measured for 48 hrs by CCK-8 assay; format: functional, cell-based; conditions: Homo sapiens
A549 [11] = experiment: Antiproliferative activity against NAMPT inhibitor-resistant A549 cells assessed as reduction in cell viability in presence of NMN/L-tryptophan/QA measured for 48 hrs by CCK-8 assay; format: functional, cell-based; conditions: Homo sapiens
A549 [12] = experiment: Inhibition of colony formation in NAMPT inhibitor-resistant A549 cells […] by crystal violet staining analysis; format: functional, cell-based; conditions: Homo sapiens, dose 5-15 µM
A549 [13] = experiment: Downregulation of NAD+ level in NAMPT inhibitor-resistant A549 cells at 10 uM measured for 24 hrs; format: functional, cell-based; conditions: Homo sapiens
A549 [14] = experiment: Downregulation of NAD+ level in NAMPT inhibitor-resistant A549 cells at 10 uM measured for 24 hrs in presence of NMN/L-tryptophan/QA; format: functional, cell-based; conditions: Homo sapiens
A549 [15] = experiment: Induction of ROS production in NAMPT inhibitor-resistant A549 cells assessed as ROS accumulation incubated for 24 hrs by DCFH-DA staining based flow cytometry analysis; format: functional, cell-based; conditions: Homo sapiens, dose 5-15 µM
A549 [16] = experiment: Induction of ROS production in NAMPT inhibitor-resistant A549 cells assessed as ROS accumulation at 5 to 15 uM incubated for 24 hrs in presence of NAC by DCFH-DA staining based flow cytometry analysis; format: functional, cell-based; conditions: Homo sapiens, dose 5-15 µM
A549 [17] = experiment: Antiproliferative activity against NAMPT inhibitor-resistant A549 cells assessed as reduction in cell viability in presence of NAC measured for 48 hrs by CCK-8 assay; format: functional, cell-based; conditions: Homo sapiens
Danio rerio [18] = species on record: Danio rerio; experiment: Induction of ROS production in zebra fish embryos assessed as increase in green fluorescence at 10 uM measured for 24 hrs by DCFH-DA staining based inverted microscopic analysis; format: functional
Danio rerio [19] = species on record: Danio rerio; experiment: Induction of ROS production in zebra fish embryos assessed as increase in green fluorescence at 5 uM measured for 24 hrs by DCFH-DA staining based inverted microscopic analysis; format: functional
A549 [20] = experiment: Antimigratory activity against NAMPT inhibitor-resistant A549 cells assessed as inhibition of cell migration measured after 24 hrs by crystal violet staining based microscopic analysis; format: functional; conditions: Homo sapiens, dose 5-15 µM
A549 [21] = experiment: Antimigratory activity against NAMPT inhibitor-resistant A549 cells assessed as decrease in Snail expression incubated 24 hrs by Western blot analysis; format: functional, cell-based; conditions: Homo sapiens, dose 5-15 µM
A549 [22] = experiment: Antimigratory activity against NAMPT inhibitor-resistant A549 cells assessed as decrease in slug expression incubated 24 hrs by Western blot analysis; format: functional, cell-based; conditions: Homo sapiens, dose 5-15 µM
A549 [23] = experiment: Downregulation of Smad3 expression in NAMPT inhibitor-resistant A549 cells at 5 to 15 uM measured for 24 hrs; format: functional, cell-based; conditions: Homo sapiens, dose 5-15 µM
A549 [24] = experiment: Effect on intracellular lipid level in NAMPT inhibitor-resistant A549 cells measured for 24 hrs by oil red staining based microscopic analysis; format: functional, cell-based; conditions: Homo sapiens
A549 [25] = experiment: Effect on intracellular lipid level in NAMPT inhibitor-resistant A549 cells measured for 24 hrs by nile red staining based microscopic analysis; format: functional, cell-based; conditions: Homo sapiens
A549 [26] = experiment: Downregulation of NAMPT expression in NAMPT NAMPT inhibitor-resistant A549 cells measured for 24 hrs by Western blot analysis; format: functional, cell-based; conditions: Homo sapiens, dose 5-10 µM
A549 [27] = experiment: Downregulation of IDO1 expression in NAMPT inhibitor-resistant A549 cells measured for 12 hrs in presence of cycloheximide by Western blot analysis; format: functional, cell-based; conditions: Homo sapiens
A549 [28] = experiment: Downregulation of IDO1 expression in NAMPT inhibitor-resistant A549 cells measured for 12 hrs in presence of MG-132 by Western blot analysis; format: functional, cell-based; conditions: Homo sapiens
A549 [29] = experiment: Antimigratory activity against NAMPT inhibitor-resistant A549 cells assessed as reduction in cell migration at 5 uM incubated for 24 hrs in presence of taxol by inverted microscopic analysis; format: functional, cell-based; conditions: Homo sapiens
[30] = Oral bioavailability in Sprague-Dawley rat at 25 mg/kg; format: ADME, organism-based; conditions: in vivo
[31] = AUC in Sprague-Dawley rat at 25 mg/kg, po; format: ADME, organism-based; parameters: dose 25 mg/kg, route po; conditions: in vivo
[32] = Clearance in Sprague-Dawley rat at 5 mg/kg, iv; format: ADME, organism-based; conditions: in vivo
[33] = Apparent volume of distribution in Sprague-Dawley rat at 5 mg/kg, iv; format: ADME, organism-based; conditions: in vivo, read-out: Vz
A549 [34] = experiment: Antitumor activity against NAMPT inhibitor-resistant A549 cells xenografted in athymic nude mouse assessed as tumor growth inhibition at 50 mg/kg, po bid measured on day 21 by caliper method; format: functional, Homo sapiens; conditions: A549, 504 h, time 21 day, read-out: TGI
A549 [35] = experiment: Antitumor activity against NAMPT inhibitor-resistant A549 cells xenografted in athymic nude mouse assessed as tumor growth inhibition at 100 mg/kg, po bid measured on day 21 by caliper method; format: functional, Homo sapiens; conditions: A549, 504 h, time 21 day, read-out: TGI
A549 [36] = experiment: Antitumor activity against NAMPT inhibitor-resistant A549 cells xenografted in athymic nude mouse assessed as tumor growth inhibition at 200 mg/kg, po bid measured on day 21 by caliper method; format: functional, Homo sapiens; conditions: A549, 504 h, time 21 day, read-out: TGI
A549 [37] = experiment: Antitumor activity against NAMPT inhibitor-resistant A549 cells xenografted in athymic nude mouse assessed as tumor growth inhibition at 100 mg/kg, po bid measured on day 21 in presence of taxol by caliper method; format: functional, Homo sapiens; conditions: A549, 504 h, time 21 day, read-out: TGI
A549 [38] = experiment: Antitumor activity against NAMPT inhibitor-resistant A549 cells xenografted in athymic nude mouse assessed as reduction in tumor size at 50 to 200 mg/kg, po bid measured on day 21 in presence of taxol by caliper method; format: functional, organism-based; conditions: Homo sapiens, dose 50-200 mg/kg, time 21.0 day
[39] = Toxicity in athymic nude mouse xenografted with NAMPT inhibitor-resistant A549 cells assessed as change in body weight at 50 to 200 mg/kg, po measured on day 21; format: organism-based; conditions: in vivo, 504 h, dose 50-200 mg/kg, time 21 day
[40] = Toxicity in athymic nude mouse xenografted with NAMPT inhibitor-resistant A549 cells assessed as mortality at 50 to 200 mg/kg, po measured on day 21; format: organism-based; conditions: in vivo, 504 h, dose 50-200 mg/kg, time 21 day
A549 [41] = experiment: Antitumor activity against NAMPT inhibitor-resistant A549 cells xenografted in athymic nude mouse at 100 to 200 mg/kg, po measured for 14 days in presence of epacadostat; format: functional, organism-based; conditions: Homo sapiens, dose 100-200 mg/kg, time 14.0 day
A549 [42] = experiment: Antitumor activity against NAMPT inhibitor-resistant A549 cells xenografted in athymic nude mouse at 100 to 200 mg/kg, po measured for 14 days in presence of FK866; format: functional, organism-based; conditions: Homo sapiens, dose 100-200 mg/kg, time 14.0 day
A549 [43] = experiment: Antitumor activity against NAMPT inhibitor-resistant A549 cells xenografted in athymic nude mouse at 100 mg/kg, po measured for 14 days in presence of epacadostat; format: functional, organism-based; conditions: Homo sapiens, time 14.0 day
A549 [44] = experiment: Antitumor activity against NAMPT inhibitor-resistant A549 cells xenografted in athymic nude mouse at 100 mg/kg, po measured for 14 days in presence of FK866; format: functional, organism-based; conditions: Homo sapiens, time 14.0 day

T1 sequence (P14902 whole entry): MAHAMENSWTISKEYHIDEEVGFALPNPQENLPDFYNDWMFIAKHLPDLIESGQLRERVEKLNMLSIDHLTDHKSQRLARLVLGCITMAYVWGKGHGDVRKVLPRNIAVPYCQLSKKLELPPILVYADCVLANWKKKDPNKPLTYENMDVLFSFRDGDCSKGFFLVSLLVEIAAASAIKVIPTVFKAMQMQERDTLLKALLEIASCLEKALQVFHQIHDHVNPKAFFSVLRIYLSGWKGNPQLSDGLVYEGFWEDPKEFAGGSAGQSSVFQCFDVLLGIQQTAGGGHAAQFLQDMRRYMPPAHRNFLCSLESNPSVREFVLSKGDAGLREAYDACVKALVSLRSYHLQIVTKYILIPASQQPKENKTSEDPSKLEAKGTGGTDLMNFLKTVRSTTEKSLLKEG
Chain of Nicotinamide phosphoribosyltransferase (P43490 whole entry): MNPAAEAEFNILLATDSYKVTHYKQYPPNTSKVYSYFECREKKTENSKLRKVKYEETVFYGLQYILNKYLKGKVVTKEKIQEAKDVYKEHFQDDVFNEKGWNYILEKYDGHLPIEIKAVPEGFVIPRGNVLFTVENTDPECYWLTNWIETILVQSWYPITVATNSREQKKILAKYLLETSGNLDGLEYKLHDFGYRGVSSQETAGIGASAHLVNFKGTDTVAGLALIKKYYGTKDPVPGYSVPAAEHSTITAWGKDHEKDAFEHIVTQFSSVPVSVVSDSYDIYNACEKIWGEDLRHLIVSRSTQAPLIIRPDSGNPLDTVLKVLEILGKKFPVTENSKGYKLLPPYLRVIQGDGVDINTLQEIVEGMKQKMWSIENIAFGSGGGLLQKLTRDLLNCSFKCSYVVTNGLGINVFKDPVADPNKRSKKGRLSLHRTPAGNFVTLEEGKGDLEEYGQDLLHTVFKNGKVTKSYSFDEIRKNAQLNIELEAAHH

CC(=O)O[C@H]1C(=O)[C@@]2(C)[C@H]([C@H](OC(=O)c3ccccc3)[C@]3(O)C[C@H](OC(=O)[C@H](O)[C@@H](NC(=O)c4ccccc4)c4ccccc4)C(C)=C1C3(C)C)[C@]1(OC(C)=O)CO[C@@H]1C[C@@H]2O [PACLITAXEL]
inhibition in vivo at 2 mg/kg (A549 [1]): 20.2% | Activity (A549 [2]): Active

NS(=O)(=O)NCCNc1nonc1/C(=N/O)Nc1ccc(F)c(Br)c1 [EPACADOSTAT]
Activity (A549 [3]): Active | Activity (A549 [4]): inactive | IC50 (A549 [5]): 61100 nM | IC50 (A549 [6]): 34500 nM

O=C(c1ccc2nccn2c1)N1CCC(CCNc2nonc2/C(=N/O)Nc2ccc(F)c(Br)c2)CC1
IC50 [7]: > 1000 nM

O=C(Nc1ccc(CCNc2nonc2/C(=N/O)Nc2ccc(F)c(Br)c2)cc1)c1ccc2nccn2c1
IC50 [8]: > 10000 nM | IC50 [7]: > 1000 nM

O=C(NCCCCNc1nonc1/C(=N/O)Nc1ccc(F)c(Br)c1)c1ccc2nccn2c1
IC50 [7]: 660 nM | IC50 [9]: 520 nM

O=C(NCCCCCCNc1nonc1/C(=N/O)Nc1ccc(F)c(Br)c1)c1ccc2nccn2c1
IC50 [8]: 57.7 nM | IC50 [7]: 233 nM | IC50 [9]: 160 nM | Activity (A549 [10]): inactive | Activity (A549 [11]): inactive | inhibition (A549 [12]): Dose-Dependent Effect | Activity (A549 [13]): Active | Activity (A549 [14]): Active | Activity (A549 [15]): Dose-Dependent Effect | Activity (A549 [16]): inactive | Activity (A549 [17]): inactive | Activity (Danio rerio [18]): Active | Activity (Danio rerio [19]): Active | Activity (A549 [20]): Dose-Dependent Effect | Activity (A549 [21]): Dose-Dependent Effect | Activity (A549 [22]): Dose-Dependent Effect | Activity (A549 [23]): Active | Activity (A549 [24]): Active | Activity (A549 [25]): Active | Activity (A549 [26]): Dose-Dependent Effect | Activity (A549 [4]): Dose-Dependent Effect | Activity (A549 [27]): Active | Activity (A549 [28]): inactive | Activity (A549 [29]): Active | bioavailability [30]: 52.5% | AUC [31]: 2530 ng·h/mL | clearance [32]: 106 mL/min/kg | Vd [33]: 11.5 L/kg | inhibition in vivo at 50 mg/kg (A549 [34]): 24.6% | inhibition in vivo at 100 mg/kg (A549 [35]): 40.2% | inhibition in vivo at 200 mg/kg (A549 [36]): 53.8% | inhibition in vivo at 100 mg/kg (A549 [37]): 64.3% | Activity (A549 [38]): Active | Activity [39]: Non-Toxic | Activity [40]: Non-Toxic | Activity (A549 [41]): Active | Activity (A549 [42]): Active | Activity (A549 [43]): Active | Activity (A549 [44]): Active | IC50 (A549 [5]): 5350 nM

O=C(NCc1ccc(C(=O)N2CCC(CCNc3nonc3/C(=N/O)Nc3ccc(F)c(Br)c3)CC2)cc1)c1ccc2nccn2c1
IC50 [7]: > 1000 nM

O=C(NCCNc1nonc1/C(=N/O)Nc1ccc(F)c(Br)c1)c1ccc2nccn2c1
IC50 [7]: > 1000 nM | IC50 [9]: > 1000 nM
